# Data as given in paper PMC6208284 (Phytotherapy Research, 2018).
# Assays:
# [1] = tested on: Leishmania tarentolae promastigotes (LtP); experiment: Superoxide radical detection in LtP by CMH/ESR; assay type: cell-based; details: 5 μM, positive control, with DFO and DTPA
# Method: Detection of superoxide radicals was performed using CMH as reaction partner and measuring the formed stable nitroxyl radicals by electron spin resonance (ESR) spectroscopy. Measurements were performed in PBS (136 mM NaCl, 1.15 mM KH2PO4, 14 mM Na2HPO4, and 2.7 mM KCl, pH 7.4) containing 15 mM glucose, 400 μM CMH, and 100 μM DFO (desferrioxamine mesylate) and 25 μM DTPA. Usually, these assays are performed in the presence of iron chelators (DFO and DTPA) to prevent CMH interaction with free Fe^3+ leading to CM^● unrelated to superoxide radicals. Before the measurements, LtP suspensions were washed twice with PBS to remove the medium. Typical experiments contained 5 × 10^8 LtP cells/ml. Stock solutions of EO compounds dissolved in DMSO were added. The influence of Asc (6–700 μM) on the CMH oxidation rate by LtP was assessed immediately and after prolonged incubation time (1 hr between Asc and CMH addition). The influence of iron‐dependent Asc activation in LtP on CMH oxidation was studied in the absence of iron chelators DFO and DTPA. Prior to the ESR measurement, 400 μM CMH was added. Afterwards, 17 μl of suspension was aspirated in gas‐permeable Teflon tubes (ID 0.7 mm). This capillary tube was placed in the resonator of the ESR instrument (Bruker EMX, split ring MD5, Germany), and 10 sequential measurements were performed. The following instrument settings were used: microwave frequency 9.682 GHz, modulation frequency 100 kHz, modulation amplitude 1 G, time constant 0.082 s, center field 3,446 G, scan rate 71 G/min, sweep width 100 G, scan time 84 s, and attenuation CMH: 7.96 × 10^3. From the ESR spectra, the middle peak intensity was retrieved, and concentrations of oxidized CMH were obtained by comparison with a standard curve prepared from 3‐carboxy‐proxyl solutions with defined concentrations. Four replicate measurements were performed for each condition.
# [2] = tested on: Leishmania tarentolae promastigotes (LtP); experiment: Immediate mitochondrial uncoupling in LtP, OxoPlates with oligomycin; assay type: cell-based; details: positive control uncoupler, 0.7–5 μM, LtP + 5 μM Oligo
# Method: U‐shaped 96‐well OxoPlates (OP96U PreSens, Germany) with integrated fluorescence oxygen sensors were used for parallel LtP experiments. Oxygen concentrations were measured using a PerkinElmer Enspire fluorescence plate reader using excitation wavelength 540 nm and two emission wavelengths (reference dye 590 nm, IRef, and O2‐sensing dye 650 nm, IInd). The oxygen concentration (μM O2) was calculated according to manufacturer's instructions as described previously (Monzote et al., 2016). Measurements with LtP were performed in air‐saturated BHI medium. […] Immediately before the measurement, 150 μl of well‐aerated cell suspensions (13 × 10^7 LtP per ml) was added to the respective wells. Finally, on the top of each well, 50 μl of paraffin oil was layered. Two minutes after mixing, the fluorescence measurements at 27 °C were started, and eight measurements at 5‐min intervals were performed. From the linear part of the O2 decay, the slopes were calculated and corrected for the medium drift for further statistic evaluation. All measurements were performed at least in triplicate. For bioenergetic characterization, the ATP synthase inhibitor Oligo (5 μM) and as positive control CCCP (0.7–5 μM) were used. Respiratory control ratio (RCR) was calculated from respiration rate in the presence of Oligo and compounds/uncoupler divided by the rate in the presence of Oligo.
# [3] = set-up: method as in Rappoport & Frankel, 1967; details: ref Rappoport & Frankel, 1967; cited from earlier work
smiles,measurement,setting,value
"CCCCCC[C@H]1C(=O)O[C@H](C)[C@H](NC(=O)c2cccc(NC=O)c2O)C(=O)O[C@@H](C)[C@@H]1OC(=O)CC(C)C [AA, antimycin A, reference compound]",CM● formation (superoxide radicals) in LtP,[1],showed an increase
"N#CC(C#N)=NNc1cccc(Cl)c1 [CCCP, carbonyl cyanide‐m‐chlorophenylhydrazone, reference compound]",Oligo‐inhibited respiration in LtP,[2],clear increase
"O=[N+]([O-])c1ccc(O)c([N+](=O)[O-])c1 [2,4‐dinitrophenol, reference compound]",pKa value,[3],around 4
